We go through 36 compounds from US7902373B2 (Pfizer Inc, priority 2006, dated 2011).

For this test, the target named is human recombinant H-PGDS (Homo sapiens, UniProt O60760). As to the kind of experiment: Fluorescence intensity h-PGDS TBA enzyme assay. The test is classed as biochemical. The following applies: Examples up to 622 (and 3a, 3b).
human recombinant H-PGDS, sequence (O60760 whole entry): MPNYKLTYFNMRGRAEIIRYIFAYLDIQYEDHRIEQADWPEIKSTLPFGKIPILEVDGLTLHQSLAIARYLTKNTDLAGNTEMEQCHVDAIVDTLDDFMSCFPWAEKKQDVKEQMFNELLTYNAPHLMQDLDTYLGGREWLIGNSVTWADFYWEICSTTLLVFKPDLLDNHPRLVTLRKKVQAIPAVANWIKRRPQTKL

The IC50 is the point on the concentration scale where inhibition reaches its midpoint. As to `COC(=O)c1cc(C)nc(N2CCC(NC(=O)c3ccc(-c4cccc(F)c4)nc3)CC2)n1` [Example 150, Methyl 2-[4-({[6-(3-fluorophenyl)pyridin-3-yl]carbonyl}amino)piperidin-1-yl]-6-methylpyrimidine-4-carboxylate], the IC50 stood at 1.8 nM.

Take `Cc1ccc(C#N)c(N2CC(NC(=O)c3ccc(-c4cccc(F)c4)nc3)C2)n1` [Example 607, N-[1-(3-Cyano-6-methylpyridin-2-yl)azetidin-3-yl]-6-(3-fluorophenyl)nicotinamide]: the IC50 came to 4.44 nM.

Turning to `CCc1ncc(CN2CCC(NC(=O)c3ccc(-c4cccc(F)c4)nc3)CC2)cn1` [Example 442, N-{1-[(2-Ethylpyrimidin-5-yl)methyl]piperidin-4-yl}-6-(3-fluorophenyl)nicotinamide], the IC50 is 2.78 nM.

Regarding `C[C@@H]1Oc2ccc(CN3CCC(NC(=O)c4ccc(-c5cccc(F)c5)nc4)CC3)cc2[C@H]1C(=O)O` [Example 458, (2S,3R)-5-{[4-({[6-(3-Fluorophenyl)pyridin-3-yl]carbonyl}amino)piperidin-1-yl]methyl}-2-methyl-2,3-dihydro-1-benzofuran-3-carboxylic acid], the IC50 was 1.78 nM.

For the compound `Cn1c(-c2cccc(O)c2)nc2c(N3CCC(NC(=O)c4ccc(-c5cccc(F)c5)nc4)CC3)ncnc21` [Example 109, 6-(3-Fluorophenyl)-N-{1-[8-(3-hydroxyphenyl)-9-methyl-9H-purin-6-yl]piperidin-4-yl}nicotinamide], the IC50 was 2.74 nM.

For the compound `O=C(NC1CCN(Cc2ccc(F)cc2F)CC1)c1ccc(-c2cccc(F)c2)nc1` [Example 237, N-[1-(2,4-Difluorobenzyl)piperidin-4-yl]-6-(3-fluorophenyl)nicotinamide], the IC50 came out at 0.698 nM.

Regarding `O=C(NC1CCN(c2nccc(-c3ccccc3CCO)n2)CC1)c1ccc(-c2cccc(F)c2)nc1` [Example 119, 6-(3-Fluorophenyl)-N-(1-{4-[2-(2-hydroxyethyl)phenyl]pyrimidin-2-yl}piperidin-4-yl)nicotinamide], the IC50 came to 3.74 nM.

On to `O=C(NC1CCN(Cc2ccc(Br)cn2)CC1)c1ccc(-c2cccc(F)c2)nc1` [Example 475, N-{1-[(5-Bromopyridin-2-yl)methyl]piperidin-4-yl}-6-(3-fluorophenyl)nicotinamide], for which the IC50 was determined as 4.07 nM.

As for `O=C(NC1CCN(Cc2cccc3cccnc23)CC1)c1ccc(-c2cccc(F)c2)nc1` [Example 197, 6-(3-Fluorophenyl)-N-[1-(quinolin-8-ylmethyl)piperidin-4-yl]nicotinamide], the IC50 is 0.578 nM.

With `O=C(NC1CCN(Cc2ccn(CCc3ccccc3)n2)CC1)c1ccc(-c2cccc(F)c2)nc1` [Example 394, 6-(3-Fluorophenyl)-N-(1-{[1-(2-phenylethyl)-1H-pyrazol-3-yl]methyl}piperidin-4-yl)nicotinamide], the IC50 is 0.379 nM.

As to `Cn1c(CN2CCC(NC(=O)c3ccc(-c4cccc(F)c4)nc3)CC2)nc2cc(F)c(F)cc21` [Example 449, N-{1-[(5,6-Difluoro-1-methyl-1H-benzimidazol-2-yl)methyl]piperidin-4-yl}-6-(3-fluorophenyl)nicotinamide], the IC50 amounted to 2.8 nM.

`O=C(NC1CCN(C2CCC(=O)N(CC3CCC3)CC2)CC1)c1ccc(-c2cccc(F)c2)nc1` (stereo not drawn) [Example 542, N-{1-[1-(Cyclobutylmethyl)-7-oxoazepan-4-yl]piperidin-4-yl}-6-(3-fluorophenyl)nicotinamide]: the IC50 was determined as 1.68 nM.

Turning to `Cc1ccc(C#N)c(N2C[C@H](NC(=O)c3ccc(-c4cccc(F)c4)nc3)[C@@H](O)C2)n1` (relative stereo) [Example 617], the IC50 is 4.1 nM.

Turning to `Cn1nc(CN2CCC(NC(=O)c3ccc(-c4cccc(F)c4)nc3)CC2)nc1-c1ccccc1F` [Example 482, 6-(3-Fluorophenyl)-N-(1-{[5-(2-fluorophenyl)-1-methyl-1H-1,2,4-triazol-3-yl]methyl}piperidin-4-yl)nicotinamide], the IC50 was found to be 2.39 nM.

`Cc1ccc(-c2cccc(CN3CCC(NC(=O)c4ccc(-c5cccc(F)c5)nc4)CC3)c2)c(N)n1` [Example 380, N-{1-[3-(2-Amino-6-methylpyridin-3-yl)benzyl]piperidin-4-yl}-6-(3-fluorophenyl)nicotinamide]: the IC50 turned out to be 1.25 nM.

`CC(C)(C)OC(=O)NC1(CN2CCC(NC(=O)c3ccc(-c4cccc(F)c4)nc3)CC2)CC1` [Example 203, tert-Butyl(1-{[4-({[6-(3-fluorophenyl)pyridin-3-yl]carbonyl}amino)piperidin-1-yl]methyl}cyclopropyl)carbamate]: the IC50 worked out at 2.17 nM.

Turning to `O=C(NC1CCN(c2nnnn2CC2CC2)CC1)c1ccc(-c2cccc(F)c2)nc1` [Example 99, N-{1-[1-(Cyclopropylmethyl)-1H-tetrazol-5-yl]piperidin-4-yl}-6-(3-fluorophenyl)nicotinamide], the IC50 was found to be 2.08 nM.

Turning to `NC(=O)c1ccc(C(F)(F)F)nc1N1CCC(NC(=O)c2ccc(-c3cccc(F)c3)nc2)CC1` [Example 148, 2-[4-({[6-(3-Fluorophenyl)pyridin-3-yl]carbonyl}amino)piperidin-1-yl]-6-(trifluoromethyl)nicotinamide], the IC50 amounted to 1.75 nM.

As to `O=C(NC1CCN(c2nnnn2-c2ccccc2)CC1)c1ccc(-c2cccc(F)c2)nc1` [Example 39, 6-(3-Fluorophenyl)-N-(1-(1-phenyl-1H-tetrazol-5-yl)piperidin-4-yl)nicotinamide], the IC50 worked out at 0.924 nM.

For `Cc1ccc(CN2CCC(NC(=O)c3ccc(-c4cccc(F)c4)nc3)CC2)c(F)c1` [Example 503, N-[1-(2-Fluoro-4-methylbenzyl)piperidin-4-yl]-6-(3-fluorophenyl)nicotinamide], the IC50 was 2.7 nM.

With `O=C(NC1CCN(Cc2ccc(-n3nccn3)cc2)CC1)c1ccc(-c2cccc(F)c2)nc1` [Example 493, 6-(3-Fluorophenyl)-N-{1-[4-(2H-1,2,3-triazol-2-yl)benzyl]piperidin-4-yl}nicotinamide], the IC50 is 1.1 nM.

On to `CCN(C)C(=O)c1ccc(N2CCC(NC(=O)c3ccc(-c4cccc(F)c4)nc3)CC2)nc1` [Example 566, N-Ethyl-6-[4-({[6-(3-fluorophenyl)pyridin-3-yl]carbonyl}amino)piperidin-1-yl]-N-methylnicotinamide], for which the IC50 turned out to be 1.82 nM.

On to `Nc1ncc(CN2CCC(NC(=O)c3ccc(-c4cccc(F)c4)nc3)CC2)cn1` [Example 368, N-{1-[(2-Aminopyrimidin-5-yl)methyl]piperidin-4-yl}-6-(3-fluorophenyl)nicotinamide], for which the IC50 is 2.03 nM.

Take `O=C(N[C@@H]1CN(c2ncc3ccc(F)cc3n2)C[C@H]1O)c1ccc(-c2cccc(F)c2)nc1` (relative stereo) [Example 618, Trans-6-(3-fluorophenyl)-N-[1-(7-fluoroquinazolin-2-yl)-4-hydroxypyrrolidin-3-yl]nicotinamide]: the concentration for half-maximal inhibition (IC50) stood at 7.33 nM.

As for `Cc1nc(C)c(CN2CCC(NC(=O)c3ccc(-c4cccc(F)c4)nc3)CC2)nc1C` [Example 444, 6-(3-Fluorophenyl)-N-{1-[(3,5,6-trimethylpyrazin-2-yl)methyl]piperidin-4-yl}nicotinamide], the half-maximal inhibitory concentration (IC50) is 0.135 nM.

As to `CC(CC1(C)CC1)N1CCC(NC(=O)c2ccc(-c3cccc(F)c3)nc2)CC1` (stereo not drawn) [Example 529, 6-(3-Fluorophenyl)-N-{1-[1-methyl-2-(1-methylcyclopropyl)ethyl]piperidin-4-yl}nicotinamide], the IC50 was 2.5 nM.

With `CC(C)n1nnnc1N1CCC(NC(=O)c2ccc(-c3cccc(F)c3)nc2)CC1` [Example 97, 6-(3-Fluorophenyl)-N-[1-(1-isopropyl-1H-tetrazol-5-yl)piperidin-4-yl]nicotinamide], the IC50 came out at 0.319 nM.

As to `Cn1nc(-c2cccc(F)c2)nc1CN1CCC(NC(=O)c2ccc(-c3cccc(F)c3)nc2)CC1` [Example 483, 6-(3-Fluorophenyl)-N-(1-{[3-(3-fluorophenyl)-1-methyl-1H-1,2,4-triazol-5-yl]methyl}piperidin-4-yl)nicotinamide], the IC50 was 3.58 nM.

On to `O=C(NC1CCN(Cc2c[nH]cn2)CC1)c1ccc(-c2cccc(F)c2)nc1` [Example 190, 6-(3-Fluorophenyl)-N-[1-(1H-imidazol-5-ylmethyl)piperidin-4-yl]nicotinamide], for which the IC50 is 1.83 nM.

As to `CCOC(=O)N1CCC(NC(=O)c2ccc(-c3cccc(F)c3)nc2)C1` (stereo not drawn) [Example 594, Ethyl 3-({[6-(3-fluorophenyl)pyridin-3-yl]carbonyl}amino)pyrrolidine-1-carboxylate], the concentration for half-maximal inhibition (IC50) stood at 2.7 nM.

Turning to `CC(C)(C)C(=O)Nc1ncccc1CN1CCC(NC(=O)c2ccc(-c3cccc(F)c3)nc2)CC1` [Example 346, N-[1-({2-[(2,2-Dimethylpropanoyl)amino]pyridin-3-yl}methyl)piperidin-4-yl]-6-(3-fluorophenyl)nicotinamide], the IC50 was found to be 4.07 nM.

Turning to `CC(CCO)N1CCC(NC(=O)c2ccc(-c3cccc(F)c3)nc2)CC1` (stereo not drawn) [Example 550, 6-(3-Fluorophenyl)-N-[1-(3-hydroxy-1-methylpropyl)piperidin-4-yl]nicotinamide], the half-inhibitory concentration (IC50) came out at 2.38 nM.

`O=C(NC1CCN(Cc2ccc3c(c2)CCO3)CC1)c1ccc(-c2cccc(F)c2)nc1` [Example 313, N-[1-(2,3-Dihydro-1-benzofuran-5-ylmethyl)piperidin-4-yl]-6-(3-fluorophenyl)nicotinamide]: the IC50 was 2.15 nM.

For `Cc1nc(N2CCC(NC(=O)c3ccc(-c4cccc(F)c4)nc3)CC2)ccc1C#N` [Example 175, N-[1-(5-Cyano-6-methylpyridin-2-yl)piperidin-4-yl]-6-(3-fluorophenyl)nicotinamide], the IC50 was found to be 5.4 nM.

`N#CC1(c2ccc(CN3CCC(NC(=O)c4ccc(-c5cccc(F)c5)nc4)CC3)cc2)CC=CC1` [Example 385, N-{1-[4-(1-Cyanocyclopent-3-en-1-yl)benzyl]piperidin-4-yl}-6-(3-fluorophenyl)nicotinamide]: the IC50 came out at 11.7 nM.

Regarding `O=C(N[C@@H]1CN(c2nc3ccccc3o2)C[C@H]1O)c1ccc(-c2cccc(F)c2)nc1` (relative stereo) [Example 616, Trans-N-[1-(1,3-benzoxazol-2-yl)-4-hydroxypyrrolidin-3-yl]-6-(3-fluorophenyl)nicotinamide], the IC50 is 5.12 nM.
